What all share (assay type): biochemical
One assay concerns the target ROCK I (Homo sapiens, UniProt Q13464). Nature of the assay: ROCK-I inhibition assay (radioactive enzyme assay, MBP substrate). The settings on record: enzyme inhibition, Ki(app), Table 5. Put shortly:
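Human ROCK at 5 nM phosphorylated 27 μM myelin basic protein with 13 μM [γ-33P]ATP (final) in HEPES pH 7.5, MgCl2, NaCl, DTT and 1.5% DMSO. Reactions ran 2 h at room temperature before TCA quench and filter-plate scintillation counting. After background subtraction, data were fit to give Ki(app).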

The next assay addresses T1, JAK3 (Homo sapiens, UniProt P52333).
T1 sequence (P52333 1-1124): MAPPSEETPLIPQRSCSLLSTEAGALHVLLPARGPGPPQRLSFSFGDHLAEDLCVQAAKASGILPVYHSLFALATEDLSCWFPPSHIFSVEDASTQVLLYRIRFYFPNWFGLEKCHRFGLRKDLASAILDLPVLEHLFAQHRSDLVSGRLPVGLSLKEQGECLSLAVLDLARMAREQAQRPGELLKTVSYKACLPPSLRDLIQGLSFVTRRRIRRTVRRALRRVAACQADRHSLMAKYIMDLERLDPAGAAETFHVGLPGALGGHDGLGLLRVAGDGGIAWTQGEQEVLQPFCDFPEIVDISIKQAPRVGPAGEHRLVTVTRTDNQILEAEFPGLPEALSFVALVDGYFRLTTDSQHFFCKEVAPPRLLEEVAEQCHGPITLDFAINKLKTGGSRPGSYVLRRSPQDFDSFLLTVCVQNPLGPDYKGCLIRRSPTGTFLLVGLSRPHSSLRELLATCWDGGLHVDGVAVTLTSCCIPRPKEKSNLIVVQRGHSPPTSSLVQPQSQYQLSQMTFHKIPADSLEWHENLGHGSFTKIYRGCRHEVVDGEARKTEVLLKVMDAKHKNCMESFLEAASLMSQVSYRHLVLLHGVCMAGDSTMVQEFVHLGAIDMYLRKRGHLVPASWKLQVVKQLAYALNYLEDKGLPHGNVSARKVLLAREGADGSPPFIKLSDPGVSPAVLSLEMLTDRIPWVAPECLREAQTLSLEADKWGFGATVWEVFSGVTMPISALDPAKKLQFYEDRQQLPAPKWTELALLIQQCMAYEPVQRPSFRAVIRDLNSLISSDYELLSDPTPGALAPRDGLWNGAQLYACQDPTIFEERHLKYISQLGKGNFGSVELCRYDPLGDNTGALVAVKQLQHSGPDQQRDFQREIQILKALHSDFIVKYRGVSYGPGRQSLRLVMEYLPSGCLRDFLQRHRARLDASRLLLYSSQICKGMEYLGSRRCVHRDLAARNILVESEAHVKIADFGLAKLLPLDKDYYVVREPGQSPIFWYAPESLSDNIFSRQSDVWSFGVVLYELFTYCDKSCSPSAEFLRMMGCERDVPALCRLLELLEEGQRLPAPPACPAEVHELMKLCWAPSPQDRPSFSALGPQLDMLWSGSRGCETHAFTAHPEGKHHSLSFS
Nature of the assay: JAK3 inhibition assay (33P incorporation into poly(Glu)4Tyr). Particulars: enzyme inhibition, Table 5. Put shortly:
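Human JAK3 at 1 nM phosphorylated 1 μM poly(Glu)4Tyr using 5 μM [33P]ATP in HEPES pH 7.4 buffer with MgCl2, DTT and BSA. Reactions ran 20 min at 25° C. and were stopped with TCA. 33P incorporation was measured by scintillation after glass-fiber filter capture.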

For another assay, the target named is JAK2 (Homo sapiens, UniProt O60674). The assay is described as follows: JAK2 inhibition assay (as Example 3 with JAK-2 enzyme). The settings on record: enzyme inhibition, Table 5. Put shortly: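 Radiometric JAK2 kinase assay: poly(Glu)4Tyr substrate at final 15 μM, ATP at final 12 μM with [33P]; buffer 100 mM HEPES pH 7.4, 1 mM DTT, 10 mM MgCl2, 25 mM NaCl, 0.01% BSA. 20 min at 25 °C, TCA-stopped, 33P incorporation counted after filter capture.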
Chain of JAK2 (O60674 whole entry): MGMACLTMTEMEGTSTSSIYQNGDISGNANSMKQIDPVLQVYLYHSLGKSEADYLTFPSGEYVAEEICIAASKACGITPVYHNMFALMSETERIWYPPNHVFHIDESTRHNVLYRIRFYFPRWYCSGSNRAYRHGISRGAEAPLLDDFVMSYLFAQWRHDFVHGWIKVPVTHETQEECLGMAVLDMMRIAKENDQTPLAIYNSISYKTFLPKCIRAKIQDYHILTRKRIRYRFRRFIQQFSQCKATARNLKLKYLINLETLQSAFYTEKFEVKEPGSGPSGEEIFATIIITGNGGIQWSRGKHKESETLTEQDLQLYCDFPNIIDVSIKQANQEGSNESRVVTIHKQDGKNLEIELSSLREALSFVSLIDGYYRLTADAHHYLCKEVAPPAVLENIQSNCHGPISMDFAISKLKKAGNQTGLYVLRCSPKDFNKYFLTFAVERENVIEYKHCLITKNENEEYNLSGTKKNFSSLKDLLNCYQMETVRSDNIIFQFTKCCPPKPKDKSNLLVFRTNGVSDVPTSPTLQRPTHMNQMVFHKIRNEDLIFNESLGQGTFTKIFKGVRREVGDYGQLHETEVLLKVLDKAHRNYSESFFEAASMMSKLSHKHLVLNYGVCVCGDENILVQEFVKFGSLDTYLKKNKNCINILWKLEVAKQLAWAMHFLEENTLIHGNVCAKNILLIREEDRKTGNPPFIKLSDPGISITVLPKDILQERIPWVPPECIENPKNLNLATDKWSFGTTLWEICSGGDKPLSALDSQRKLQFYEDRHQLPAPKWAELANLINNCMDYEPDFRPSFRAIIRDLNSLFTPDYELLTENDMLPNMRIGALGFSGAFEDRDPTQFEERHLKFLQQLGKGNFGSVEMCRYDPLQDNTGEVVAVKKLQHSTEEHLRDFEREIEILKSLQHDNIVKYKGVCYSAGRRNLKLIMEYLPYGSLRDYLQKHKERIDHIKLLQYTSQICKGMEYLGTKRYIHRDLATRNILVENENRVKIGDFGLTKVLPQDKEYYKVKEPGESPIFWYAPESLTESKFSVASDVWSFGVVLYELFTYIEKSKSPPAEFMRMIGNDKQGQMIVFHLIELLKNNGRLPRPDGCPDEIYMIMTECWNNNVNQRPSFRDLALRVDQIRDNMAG

SMILES strings stand for the structures.

Chain of ROCK I (Q13464 whole entry): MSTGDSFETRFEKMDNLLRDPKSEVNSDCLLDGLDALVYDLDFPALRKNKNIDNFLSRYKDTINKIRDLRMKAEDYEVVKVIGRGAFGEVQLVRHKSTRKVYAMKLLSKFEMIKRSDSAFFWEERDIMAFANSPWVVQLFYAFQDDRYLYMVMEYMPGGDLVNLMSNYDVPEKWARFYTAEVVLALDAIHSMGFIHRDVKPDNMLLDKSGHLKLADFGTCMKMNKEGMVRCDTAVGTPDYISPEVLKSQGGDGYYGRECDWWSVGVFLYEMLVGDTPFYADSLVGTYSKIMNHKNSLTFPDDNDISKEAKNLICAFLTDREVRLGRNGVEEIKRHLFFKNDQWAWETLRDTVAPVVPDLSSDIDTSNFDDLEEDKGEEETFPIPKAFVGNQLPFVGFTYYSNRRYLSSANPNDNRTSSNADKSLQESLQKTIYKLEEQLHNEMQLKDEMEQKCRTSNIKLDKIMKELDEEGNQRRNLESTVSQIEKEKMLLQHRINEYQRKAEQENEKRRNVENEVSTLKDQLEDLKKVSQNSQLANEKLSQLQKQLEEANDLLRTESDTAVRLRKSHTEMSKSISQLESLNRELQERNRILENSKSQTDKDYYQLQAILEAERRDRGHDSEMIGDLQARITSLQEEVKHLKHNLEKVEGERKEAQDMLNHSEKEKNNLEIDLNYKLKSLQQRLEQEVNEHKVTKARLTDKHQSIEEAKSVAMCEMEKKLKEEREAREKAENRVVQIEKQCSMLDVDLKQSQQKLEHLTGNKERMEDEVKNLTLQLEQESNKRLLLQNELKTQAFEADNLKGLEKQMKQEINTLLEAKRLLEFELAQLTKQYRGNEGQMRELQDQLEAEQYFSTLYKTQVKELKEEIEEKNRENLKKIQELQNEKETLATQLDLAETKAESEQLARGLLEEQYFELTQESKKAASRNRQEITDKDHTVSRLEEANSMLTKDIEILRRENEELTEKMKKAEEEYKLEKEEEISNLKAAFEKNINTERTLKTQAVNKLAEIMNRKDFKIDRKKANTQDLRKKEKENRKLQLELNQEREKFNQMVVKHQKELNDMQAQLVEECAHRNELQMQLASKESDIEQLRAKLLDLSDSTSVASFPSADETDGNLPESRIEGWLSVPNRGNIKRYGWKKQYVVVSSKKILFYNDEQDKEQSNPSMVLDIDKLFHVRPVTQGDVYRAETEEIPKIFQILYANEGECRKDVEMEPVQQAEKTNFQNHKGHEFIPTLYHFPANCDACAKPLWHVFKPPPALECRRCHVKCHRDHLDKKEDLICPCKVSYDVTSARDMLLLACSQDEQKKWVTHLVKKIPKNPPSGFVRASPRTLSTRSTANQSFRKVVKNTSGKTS

In the case of `Cc1ccc(-c2ccnc3[nH]ccc23)cc1C` [compound 110, 4-(3,4-Dimethyl-phenyl)-1H-pyrrolo[2,3-b]pyridine], the Ki at ROCK I, at JAK3 and at JAK2 was below 500 nM throughout.
On to `Cn1cc(-c2ccnc3[nH]ccc23)cn1` [compound 111, 4-(1-Methyl-1H-pyrazol-4-yl)-1H-pyrrolo[2,3-b]pyridine], for which the Ki on ROCK I, on JAK3 and on JAK2 was below 500 nM in each case.
`Cc1cc(C)cc(-c2ccnc3[nH]ccc23)c1` [compound 112, 4-(3,5-Dimethyl-phenyl)-1H-pyrrolo[2,3-b]pyridine]: the Ki on ROCK I was below 500 nM; at JAK3, 500 to 5000 nM; at JAK2 it was below 500 nM.
Consider `FC(F)(F)c1cccc(-c2ccnc3[nH]ccc23)c1` [compound 113, 4-(3-Trifluoromethyl-phenyl)-1H-pyrrolo[2,3-b]pyridine], for which the Ki at ROCK I was below 500 nM; on JAK3, 500 to 5000 nM; at JAK2, below 500 nM.
Take `Nc1cccc(-c2ccnc3[nH]ccc23)c1` [compound 114, 3-(1H-Pyrrolo[2,3-b]pyridin-4-yl)-phenylamine]: the Ki at ROCK I is below 500 nM; at JAK3 it was 500 to 5000 nM; on JAK2, 500 to 5000 nM.
In the case of `c1cc(-c2ccnc3[nH]ccc23)c2ccoc2c1` [compound 115, 4-Benzofuran-4-yl-1H-pyrrolo[2,3-b]pyridine], the Ki at ROCK I, at JAK3 and at JAK2 was below 500 nM throughout.
For the compound `CC(C)Oc1ccc(-c2ccnc3[nH]ccc23)cc1` [compound 116, 4-(4-Isopropoxy-phenyl)-1H-pyrrolo[2,3-b]pyridine], the Ki at ROCK I, on JAK3 and at JAK2 was below 500 nM each time.
`COC(=O)c1ccccc1-c1ccnc2[nH]ccc12` [compound 117]: the Ki was 500 to 5000 nM at ROCK I, above 5000 nM on JAK3 and above 5000 nM on JAK2.
Turning to `CC(=O)Nc1ccccc1-c1ccnc2[nH]ccc12` [compound 118], the values for the Ki at ROCK I, at JAK3 and at JAK2 were 500 to 5000 nM, above 5000 nM and above 5000 nM, respectively.
Take `Nc1ccccc1-c1ccnc2[nH]ccc12` [compound 119]: the Ki on ROCK I was 500 to 5000 nM; at JAK3, above 5000 nM; on JAK2 it was above 5000 nM.
Regarding `C[C@H](Nc1ccnc(-c2ccnc3[nH]ccc23)n1)C(=O)NCC(F)(F)F` [compound 120, (S)-2-(2-(1H-pyrrolo[2,3b]pyridin-4-yl)pyrimidin-4-ylamino)-N-(2,2,2-trifluoroethyl)propanamide], the results for the Ki on ROCK I, at JAK3 and at JAK2 were 500 to 5000 nM, below 500 nM and 500 to 5000 nM, respectively.
On to `C[C@H](Nc1nc(-c2ccnc3[nH]ccc23)ncc1F)C(=O)NCC(F)(F)F` [compound 121, (S)-2-(5-fluoro-2-(1H-pyrrolo[2,3b]pyridin-4-yl)pyrimidin-4-ylamino)-N-(2,2,2-trifluoroethyl)propanamide], for which the Ki on ROCK I was 500 to 5000 nM; on JAK3, below 500 nM; on JAK2, 500 to 5000 nM.
Take `C[C@H](Nc1cccc(-c2ccnc3[nH]ccc23)n1)C(=O)NCC(F)(F)F` [compound 122, (S)-2-(6-(1H-pyrrolo[2,3b]pyridin-4-yl)pyridin-2-ylamino)-N-(2,2,2-trifluoroethyl)propanamide]: the Ki on ROCK I is 500 to 5000 nM; at JAK3, below 500 nM; on JAK2, 500 to 5000 nM.
With `CC(C)(O)c1cccc(-c2ccnc3[nH]ccc23)n1` [compound 123, 2-(6-(1H-pyrrolo[2,3-b]pyridin-4-yl)pyridin-2-yl)propan-2-ol], the Ki on ROCK I, on JAK3 and at JAK2 was below 500 nM throughout.
Take `Cc1n[nH]c(C)c1-c1ccnc2[nH]ccc12` [compound 124, 4-(3,5-Dimethyl-1H-pyrazol-4-yl)-1H-pyrrolo[2,3-b]pyridine]: the values for the Ki at ROCK I, on JAK3 and at JAK2 were 500 to 5000 nM, 500 to 5000 nM and above 5000 nM, respectively.

Values taken from patent publication US8921376B2, “Pyrrolopyridines useful as inhibitors of protein kinase” (Vertex Pharmaceuticals Incorporated, priority 2005, dated 2014).
